In patent US20260201062A1, “LIGAND-DRUG CONJUGATE OF EXATECAN ANALOGUE, PREPARATION METHOD THEREFOR AND APPLICATION THEREOF” (JIANGSU HENGRUI MEDICINE CO., LTD., priority 2018, published 2026) one finds tumor inhibition rate and IC50 data, which are given here for six compounds.

Like-named read-outs stand apart in the source and are kept apart here.

The subject of assay [1] is trastuzumab (Herceptin) resistant human breast cancer cell strain JIMT-1 transplanted tumor. Briefly: Efficacy evaluation in JIMT-1 tumor-bearing mice. Type of assay: in vivo, Nunu nude mice. Conditions: 10 mg/kg, intraperitoneal injection 2 times, Day 34.
Text: Formulation method: the drugs were all diluted and formulated with PBS. • 3. Test animals • Nunu nude mice, purchased from Beijing Vital River Laboratory Animal Technology Co., Ltd.
JIMT-1 cells (Nanjing Cobioer Biosciences Co., Ltd.) (5×10^6 cells/mouse, having 50% matrigel) were inoculated subcutaneously in the right rib of mouse. After the tumor grew for 8 days and reached 203.09±11.94 mm^3, the animals were randomly grouped into 6 groups with 8 animals per group (d1).
The drugs were administered by intraperitoneal injection for a total of 2 times. The tumor volume and body weight were measured twice a week, and the data were recorded.
Excel 2003 statistical software was used for data statistics: mean value was calculated as avg; SD value was calculated as STDEV; SEM value was calculated as STDEV/SQRT; P value between different groups was calculated as TTEST.
[formula] [formula] [formula] • wherein V0 and VT represent the tumor volume at the beginning of the test and at the end of the test, respectively. CRTV and TRTV represent the relative tumor volume of the blank control group (Vehicle, PBS) and the test group at the end of the test, respectively.
Assay [2] has as its system SK-BR-3 tumor cells (human breast cancer cells). The assay can be described thus: In vitro inhibition of compound of formula (D) on tumor cell proliferation (CTG), SK-BR-3. Type of assay: cell-based. The following applies: read-out: IC50 of in vitro inhibition on the proliferation of SK-BR-3 cells. As for the experimental part:
(§1) The purpose of this test is to test the in vitro inhibition effect of the drug compound of formula (D) of the present invention on the proliferation of U87MG cells (Chinese Academy of Sciences cell bank, Catalog #TCHu138) and SK-BR-3 tumor cells (human breast cancer cells, ATCC, article number HTB-30). The cells were treated with different concentrations of the compound in vitro. After 6 days of cultivation, the cell proliferation was determined by CTG reagent (CellTiter-Glo® Luminescent Cell Viability Assay, Promega, article number: G7573), and the in vitro activity of the compound was evaluated according to the IC50 value.
The test method for in vitro proliferation inhibition test of the present compounds on tumor cells is described below by taking in vitro proliferation inhibition test method onU87MG cells as an example. This method is also applicable to, but not limited to, the in vitro proliferation inhibition tests on other tumor cells. • 1. Cell cultivation: U87MG cells and SK-BR-3 cells were cultured in EMEM medium containing 10% FBS (GE, article number SH30024.01) and McCoy's 5A medium containing 10% FBS (Gibco, article number 16600-108), respectively. • 2. Cell preparation: U87MG cells and SK-BR-3 cells in logarithmic growth phase were washed with PBS (phosphate buffer, Shanghai Basal Media Technologies Co., Ltd.) once, and then added with 2-3 ml of trypsin (0.25% Trypsin-EDTA (1×), Gibico, Life Technologies) to digest for 2-3 min. 10-15 ml of cell culture medium was added after the cells were completely digested. The digested cells were eluted, and centrifuged at 1000 rpm for 5 min. The supernatant was discarded, and 10-20 ml of cell culture medium was added to resuspend the cells to obtain a single-cell suspension. • 3. Cell plating: the U87MG and SK-BR-3 single-cell suspensions were mixed well, and the cell densities were adjusted to 2.75×10^3 cells/ml and 8.25×10^3 cells/ml with the cell culture medium respectively. The density-adjusted cell suspension was mixed well, and added to a 96-well cell culture plate at 180 μl/well. 200 μl of culture medium was added to the peripheral wells of the 96-well plate. The plate was incubated in an incubator for 24 hours (37° C., 5% CO2). • 4. Compound formulation: the compound was dissolved with DMSO (dimethylsulfoxide, Shanghai Titan Technology Co., Ltd.) to obtain a stock solution with an initial concentration of 10 mM.
The initial concentration of the small molecule compound was 500 nM, and the formulating method is as follows.
30 μl of different test samples were respectively added into the first column of the 96-well U-shaped bottom formulating plate with a sample concentration of 100 µM. 20 µl of DMSO was added to each well from the second column to the 11th column. […]

Assay [3] concerns U87MG cells. Briefly: In vitro inhibition of compound of formula (D) on tumor cell proliferation (CTG), U87MG. It is filed as cell-based. Conditions: Homo sapiens, U-87 MG, 144 h, read-out: IC50 of in vitro inhibition on the proliferation of U87 cells. As for the experimental part:
as §1
The test method for in vitro proliferation inhibition test of the present compounds on tumor cells is described below by taking in vitro proliferation inhibition test method onU87MG cells as an example. This method is also applicable to, but not limited to, the in vitro proliferation inhibition tests on other tumor cells. • 1. Cell cultivation: U87MG cells and SK-BR-3 cells were cultured in EMEM medium containing 10% FBS (GE, article number SH30024.01) and McCoy's 5A medium containing 10% FBS (Gibco, article number 16600-108), respectively. • 2. […]

Setting [4] is: 144 h, SK-BR-3, 6 days of cultivation, CTG reagent.

Turning to T-DM1, in assay [1], the tumor inhibition rate result is recorded as “no inhibition effect on tumor”.

With `CC[C@@]1(O)C(=O)OCc2c1cc1n(c2=O)Cc2c-1nc1cc(F)c(C)c3c1c2[C@@H](NC(=O)C1(O)CCCC1)CC3` [Compound 4, N-((1S,9S)-9-Ethyl-5-fluoro-9-hydroxy-4-methyl-10,13-dioxo-2,3,9,10,13,15-hexahydro-1H,12H-benzo[de]pyrano[3′,4′:6,7]indolizino[1,2-b]quinolin-1-yl)-1-hydroxycyclopentane-1-carboxamide], in assay [2] (SK-BR-3, 144 h), the IC50 was 1.9 nM.

Regarding `CC[C@@]1(O)C(=O)OCc2c1cc1n(c2=O)Cc2c-1nc1cc(F)c(C)c3c1c2[C@@H](NC(=O)C1(O)CC1)CC3` [Compound 1, N-((1S,9S)-9-Ethyl-5-fluoro-9-hydroxy-4-methyl-10,13-dioxo-2,3,9,10,13,15-hexahydro-1H,12H-benzo[de]pyrano[3′,4′:6,7]indolizino[1,2-b]quinolin-1-yl)-1-hydroxycyclopropane-1-carboxamide], the IC50 turned out to be 0.12 nM in assay [2] (SK-BR-3, 144 h) and 0.23 nM in assay [3].

Regarding `CC[C@@]1(O)C(=O)OCc2c1cc1n(c2=O)Cc2c-1nc1cc(F)c(C)c3c1c2[C@@H](NC(=O)C1(CO)CCC1)CC3` [Compound 6, N-((1S,9S)-9-Ethyl-5-fluoro-9-hydroxy-4-methyl-10,13-dioxo-2,3,9,10,13,15-hexahydro-1H,12H-benzo[de]pyrano[3′,4′:6,7]indolizino[1,2-b]quinolin-1-yl)-1-(hydroxymethyl) cyclobutane-1-carboxamide], the IC50 in assay [2] (setting [4]) was 1 nM.

`CC[C@@]1(O)C(=O)OCc2c1cc1n(c2=O)Cc2c-1nc1cc(F)c(C)c3c1c2[C@@H](NC(=O)C1(CO)CC1)CC3` [Compound 5, N-((1S,9S)-9-Ethyl-5-fluoro-9-hydroxy-4-methyl-10,13-dioxo-2,3,9,10,13,15-hexahydro-1H,12H-benzo[de]pyrano[3′,4′:6,7]indolizino[1,2-b]quinolin-1-yl)-1-(hydroxymethyl) cyclopropane-1-carboxamide]: the IC50 in assay [3] worked out at 4.81 nM.

As for `CC[C@@]1(O)C(=O)OCc2c1cc1n(c2=O)Cc2c-1nc1cc(F)c(C)c3c1c2[C@@H](NC(=O)C1(O)CCC1)CC3` [Compound 7, N-((1S,9S)-9-Ethyl-5-fluoro-9-hydroxy-4-methyl-10,13-dioxo-2,3,9,10,13,15-hexahydro-1H,12H-benzo[de]pyrano[3′,4′:6,7]indolizino[1,2-b]quinolin-1-yl)-1-hydroxycyclobutane-1-carboxamide], in assay [2] (setting [4]), the IC50 was determined as 1 nM.
